Source: article PMC4770772 (Oncotarget, 2015)
Where a chain is given by its changes, count along the chain named. Read-outs that look alike come from different tables or passages of the source.

Assays:
ABCG2 [1] = biological target: T1, ABCG2 (Homo sapiens, UniProt Q9UNQ0); assay: vanadate-sensitive ATPase stimulation in membrane vesicles; [3H]-MX efflux from ABCG2-transfected cells; type: biochemical
T1 construct: membrane vesicles of High Five insect cells overexpressing ABCG2
T1 sequence (Q9UNQ0 1-655): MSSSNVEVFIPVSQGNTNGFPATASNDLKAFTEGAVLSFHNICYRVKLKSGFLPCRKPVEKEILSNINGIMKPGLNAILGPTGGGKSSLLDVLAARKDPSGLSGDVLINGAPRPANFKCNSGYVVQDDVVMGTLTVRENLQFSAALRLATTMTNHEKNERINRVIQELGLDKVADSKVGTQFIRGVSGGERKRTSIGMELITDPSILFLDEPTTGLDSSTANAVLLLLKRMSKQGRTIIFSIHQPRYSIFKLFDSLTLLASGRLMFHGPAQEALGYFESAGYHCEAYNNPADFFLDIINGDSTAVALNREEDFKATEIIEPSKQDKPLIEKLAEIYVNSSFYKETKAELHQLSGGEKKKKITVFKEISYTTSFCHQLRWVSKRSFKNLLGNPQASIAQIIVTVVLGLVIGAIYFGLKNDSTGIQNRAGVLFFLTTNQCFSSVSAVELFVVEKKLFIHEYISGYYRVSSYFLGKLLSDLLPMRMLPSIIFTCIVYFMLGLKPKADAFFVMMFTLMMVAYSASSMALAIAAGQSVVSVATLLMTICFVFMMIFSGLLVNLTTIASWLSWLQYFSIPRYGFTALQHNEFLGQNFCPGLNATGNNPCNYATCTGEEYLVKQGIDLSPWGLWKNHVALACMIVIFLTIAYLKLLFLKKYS

ABCG2 [2] = biological target: T2, ABCG2 (Homo sapiens, UniProt Q9UNQ0, R482T); assay: [3H]-mitoxantrone accumulation in HEK293/R482T cells at […]; type: cell-based
T2 construct: full-length ABCG2 in HEK293 cells
T2 sequence (Q9UNQ0 1-655 R482T): T1 sequence (Q9UNQ0 1-655) with R482T

ABCG2 [3] = biological target: T3, ABCG2 (Homo sapiens, UniProt Q9UNQ0, R482G); assay: [3H]-mitoxantrone accumulation in HEK293/R482G cells at […]; type: cell-based
T3 construct: full-length ABCG2 in HEK293 cells
T3 sequence (Q9UNQ0 1-655 R482G): T1 sequence (Q9UNQ0 1-655) with R482G

ABCG2 [4] = biological target: T1, ABCG2; assay: vanadate-sensitive ATPase stimulation in membrane vesicles; also [3H]-mitoxantrone accumulation/efflux inhibition in HEK293/R482 cells; type: biochemical
ABCG2 [5] = biological target: T1, ABCG2; type: biochemical; conditions: membrane vesicles

`O=C1c2c(O)ccc(O)c2C(=O)c2c(NCCNCCO)ccc(NCCNCCO)c21` [mitoxantrone] gave an EC50 (ABCG2 [1]) of 2.2 µM.

In the case of `COc1cc(NC(=O)c2ccc(-c3ccc(Cl)cc3)o2)cc(OC)c1` [A-803467], the “[3H]-mitoxantrone accumulation in HEK293/R482T cells at 7.5 μM” value (ABCG2 [2]) is reported as “significantly increased intracellular accumulation of [^3H]-MX in ABCG2-expressing cells HEK293/R482, HEK293/R482G and HEK293/R482T cells”, the “[3H]-mitoxantrone accumulation in HEK293/R482G cells at 7.5 μM” value (ABCG2 [3]) is reported as “significantly increased intracellular accumulation of [^3H]-MX in ABCG2-expressing cells HEK293/R482, HEK293/R482G and HEK293/R482T cells” and the EC50 (ABCG2 [4]) is reported as 0.718 µM.

`CC[C@@]1(O)C(=O)OCc2c1cc1n(c2=O)Cc2cc3c(CN(C)C)c(O)ccc3nc2-1` [topotecan] gave an EC50 (ABCG2 [5]) of 2.6 µM.
